This is an account of results in paper PMC6572294, “Repurposing of FDA-Approved NSAIDs for DPP-4 Inhibition as an Alternative for Diabetes Mellitus Treatment: Computational and in Vitro Study” (Pharmaceutics, 2019).

The test addresses T1, human dipeptidyl peptidase-4 (DPP-4) (Homo sapiens, UniProt P27487).
T1 construct: gene DPP4
As to the kind of experiment: fluorogenic Gly-Pro cleavage assay, human DPP-4 inhibitor screening kit (Sigma-Aldrich). The format is biochemical.

T1 sequence (P27487 39-766): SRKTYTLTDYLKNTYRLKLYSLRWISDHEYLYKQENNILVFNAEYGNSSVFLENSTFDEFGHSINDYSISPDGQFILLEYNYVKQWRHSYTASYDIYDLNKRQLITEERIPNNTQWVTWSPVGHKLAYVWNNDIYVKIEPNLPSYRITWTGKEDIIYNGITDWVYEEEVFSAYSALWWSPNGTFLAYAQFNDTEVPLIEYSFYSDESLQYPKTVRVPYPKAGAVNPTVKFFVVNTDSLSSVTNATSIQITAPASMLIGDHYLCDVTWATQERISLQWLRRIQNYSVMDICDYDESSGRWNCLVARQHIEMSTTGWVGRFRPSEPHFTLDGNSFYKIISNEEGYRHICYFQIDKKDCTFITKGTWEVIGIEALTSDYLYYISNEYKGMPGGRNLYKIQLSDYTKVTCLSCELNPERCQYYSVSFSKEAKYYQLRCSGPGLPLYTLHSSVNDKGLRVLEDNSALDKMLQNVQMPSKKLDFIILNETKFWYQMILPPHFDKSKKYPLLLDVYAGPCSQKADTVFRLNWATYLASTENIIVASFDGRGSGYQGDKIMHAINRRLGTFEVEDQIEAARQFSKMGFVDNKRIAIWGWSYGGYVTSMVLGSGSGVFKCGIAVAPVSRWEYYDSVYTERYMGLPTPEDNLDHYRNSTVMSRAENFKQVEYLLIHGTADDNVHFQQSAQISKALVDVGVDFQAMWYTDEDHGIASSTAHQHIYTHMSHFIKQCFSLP

As a reminder, the IC50 is the concentration at which inhibition is half-maximal. On to `CN1C(C(=O)Nc2ccccn2)=C(O)c2ccccc2S1(=O)=O` [piroxicam], for which 9.9 µM corresponded to half-maximal inhibition (IC50).
